Reference: article PMC6934184, “Selective DNA-PKcs inhibition extends the therapeutic index of localized radiotherapy and chemotherapy” (The Journal of Clinical Investigation, 2019)

Target: T1, DDR2 T654M (Homo sapiens, UniProt Q16832, T654M)
T1 construct: purchased Thermo Fisher Scientific (Life Technologies) SelectScreen
Assay: SelectScreen LanthaScreen
Format: binding
Details: read-out: % displacement
How it was run: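 Percent values come from Thermo SelectScreen profiling of NU5455, combining activity and binding assays. CSF1R was run in Z'LYTE format at Km app ATP, and CAMK1 in Adapta format with ATP listed at 10.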

T1 sequence (Q16832 22-855 T654M): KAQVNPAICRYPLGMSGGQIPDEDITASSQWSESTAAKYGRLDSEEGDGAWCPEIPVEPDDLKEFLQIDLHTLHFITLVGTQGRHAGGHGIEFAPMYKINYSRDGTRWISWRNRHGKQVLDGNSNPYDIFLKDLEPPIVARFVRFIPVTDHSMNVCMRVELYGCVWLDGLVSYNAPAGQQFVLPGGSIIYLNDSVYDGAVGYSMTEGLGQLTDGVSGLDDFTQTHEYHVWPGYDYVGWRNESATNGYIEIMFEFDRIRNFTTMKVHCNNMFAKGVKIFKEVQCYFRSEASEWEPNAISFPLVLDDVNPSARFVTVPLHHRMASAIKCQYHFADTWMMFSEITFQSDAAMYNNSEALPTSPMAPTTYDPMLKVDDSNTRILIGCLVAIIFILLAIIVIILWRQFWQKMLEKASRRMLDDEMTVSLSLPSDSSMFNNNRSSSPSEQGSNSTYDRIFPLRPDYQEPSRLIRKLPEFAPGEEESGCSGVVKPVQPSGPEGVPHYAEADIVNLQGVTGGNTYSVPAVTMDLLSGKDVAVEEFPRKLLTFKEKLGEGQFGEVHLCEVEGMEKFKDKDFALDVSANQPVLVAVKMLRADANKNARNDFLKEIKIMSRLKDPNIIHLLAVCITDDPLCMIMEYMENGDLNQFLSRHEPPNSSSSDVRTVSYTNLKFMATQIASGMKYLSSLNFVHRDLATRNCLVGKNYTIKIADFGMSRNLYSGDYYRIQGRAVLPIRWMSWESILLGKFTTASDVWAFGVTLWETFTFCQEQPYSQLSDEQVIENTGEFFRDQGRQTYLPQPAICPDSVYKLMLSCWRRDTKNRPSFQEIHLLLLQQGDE

Q: How did the inhibition at 1 µM turn out when `CN(C(=O)CN1CCOCC1)c1ccc2sc3c(-c4cccc5c(=O)cc(N6CC7CCC(C6)O7)oc45)cccc3c2c1` [NU5455] was run?
A: 2.5%
